Marks after values point to notes of the source that are not given here.
Key:
[1] = system: A/Fukui/45/04 H3N2 E119V mutant neuraminidase
[2] = system: B/Perth/211/01 D197E mutant neuraminidase
[3] = target: B/Perth/211/01 D197E mutant neuraminidase; details: cited from earlier work
[4] = system: A/Mississippi/03/01 H1N1 H274Y mutant neuraminidase
H3N2 E119V neuraminidase = details: cited from earlier work

CCC(CC)[C@H](NC(C)=O)[C@@H]1[C@H](O)[C@@H](C(=O)O)C[C@H]1N=C(N)N [Peramivir, peramivir]
Time (T½) for reaction rates to reach half the maximum rate of the uninhibited control [1]: >240 min | Time (T½) for reaction rates to reach half the maximum rate of the uninhibited control [2]: 18.8 min | IC50 [3]: 41.5 nM

CC(=O)N[C@H]1[C@H]([C@H](O)[C@H](O)CO)OC(C(=O)O)=C[C@@H]1N=C(N)N [Zanamivir]
Time (T½) for reaction rates to reach half the maximum rate of the uninhibited control [4]: 43.2 min | Time (T½) for reaction rates to reach half the maximum rate of the uninhibited control [2]: 17.0^* min | changes in IC50 from 10 to 60 min in the preincubation reaction (H3N2 E119V neuraminidase): 1.9 fold | IC50 [3]: 258 nM
